Among the data in PubChem BioAssay AID292 (DTP/NCI, 2004) are T/C values, retold here.

SMILES strings stand for the structures. Where “and” joins values, the source holds several entries; their conditions need not be identical. Identical values can stand only once. Inconclusive results and toxic doses are left out.

The experiment deals with B6C3F1 mice, ip Sarcoma M5076, median survival T/C. The experiment in a line: NCI In Vivo Anticancer Drug Screen. Data for tumor model Sarcoma M5076 (intraperitoneal) in B6C3F1 mice. The settings on record: endpoint: median survival time, schedule: Q04DX004 (ip), higher = longer survival. A digest of the protocol: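 Survival measured in treated (T) and vehicle control (C) mice with transplantable tumour; result given as T divided by C.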

[1] abbreviates: dose: 50.0 mg/kg/injection, vehicle: Klucel (hydroxypropylcellulose) (HPC).
Where [2] appears, read: dose: 100.0 mg/kg/injection, vehicle: Klucel (hydroxypropylcellulose) (HPC).
The mark [3] stands for this setting: dose: 200.0 mg/kg/injection, vehicle: Klucel (hydroxypropylcellulose) (HPC).
Setting [4] is: dose: 50.0 mg/kg/injection, vehicle: saline.
Where [5] appears, read: dose: 50.0 mg/kg/injection, vehicle: suspension in saline.
Setting [6] is: dose: 100.0 mg/kg/injection, vehicle: saline.
[7] abbreviates: dose: 100.0 mg/kg/injection, vehicle: suspension in saline.
Where [8] appears, read: dose: 200.0 mg/kg/injection, vehicle: saline.
The mark [9] stands for this setting: dose: 200.0 mg/kg/injection, vehicle: suspension in saline.
The mark [10] stands for this setting: dose: 25.0 mg/kg/injection, vehicle: saline.
The mark [11] stands for this setting: dose: 25.0 mg/kg/injection, vehicle: suspension in saline.
Where [12] appears, read: dose: 37.5 mg/kg/injection, vehicle: saline with Tween-80.
Where [13] appears, read: dose: 75.0 mg/kg/injection, vehicle: saline with Tween-80.
Setting [14] is: dose: 150.0 mg/kg/injection, vehicle: saline with Tween-80.
The mark [15] stands for this setting: dose: 400.0 mg/kg/injection, vehicle: Klucel (hydroxypropylcellulose) (HPC).
Where [16] appears, read: dose: 50.0 mg/kg/injection, vehicle: saline with Tween-80.
[17] abbreviates: dose: 100.0 mg/kg/injection, vehicle: saline with Tween-80.
Setting [18] is: dose: 400.0 mg/kg/injection, vehicle: saline with Tween-80.
Setting [19] is: dose: 25.0 mg/kg/injection, vehicle: saline with Tween-80.
Where [20] appears, read: dose: 200.0 mg/kg/injection, vehicle: saline with Tween-80.
[21] abbreviates: dose: 18.75 mg/kg/injection, vehicle: saline with Tween-80.
Where [22] appears, read: dose: 300.0 mg/kg/injection, vehicle: saline with Tween-80.

For the compound `O=C(Nc1ccccc1[N+](=O)[O-])C1C(=O)C(=O)N(c2ccccc2[N+](=O)[O-])C1=O` (stereo not given), the T/C under setting [1] was 101 % of control, the T/C under setting [2] was 89 % of control and the T/C under setting [3] was 92 % of control.

Turning to `O=c1[nH]cnc2c1nnn2C1OC(CO)C(O)C1O` (stereo not given), the T/C was 105 % of control under setting [4]; 97 % of control under setting [5]; 93 % of control under setting [6]; 94 % of control under setting [7]; 112 % of control under setting [8]; 98 % of control under setting [9]. For the same compound, the T/C reads like this: (dose: 400.0 mg/kg/injection, vehicle: saline) 101 % of control; (dose: 400.0 mg/kg/injection, vehicle: suspension in saline) 96 % of control; (dose: 800.0 mg/kg/injection, vehicle: saline) 103 % of control; (dose: 800.0 mg/kg/injection, vehicle: suspension in saline) 96 % of control.

For the compound `CNC(=O)OCc1nc(SC)n(C)c1COC(=O)NC`, the T/C reads like this: under setting [10], 122 % of control; under setting [11], 119 % of control; under setting [4], 119 % of control; under setting [5], 122 % of control; under setting [6], 151 % of control; under setting [8], 184 % of control. In addition, the T/C under setting [9] was 193 % of control.

Turning to `O=c1ccn(C2CC3[O][Sn]([c]4ccccc4)([c]4ccccc4)[O]CC3O2)c(=O)[nH]1` (stereo not given), the T/C (dose: 25.0 mg/kg/injection, vehicle: distilled water + Tween-80) is 104 % of control; the T/C (dose: 50.0 mg/kg/injection, vehicle: distilled water + Tween-80) is 102 % of control; the T/C (dose: 100.0 mg/kg/injection, vehicle: distilled water + Tween-80) was 101 % of control; the T/C (dose: 200.0 mg/kg/injection, vehicle: distilled water + Tween-80) is 103 % of control; the T/C (dose: 400.0 mg/kg/injection, vehicle: distilled water + Tween-80) was 102 % of control.

`O=c1c(-c2nn[nH]n2)cnc2sc3cc(Cl)ccc3n12`: the T/C runs as follows: under setting [12], 98 % of control; under setting [13], 95 % of control; under setting [14], 90 % of control.

Regarding `COc1ccc(C2NC(=S)NC(=O)C2C#N)cc1OC` (stereo not given), the T/C was 95 % of control under setting [1], 100 % of control under setting [2], 106 % of control under setting [3] and 105 % of control under setting [15].

Take `CN(C)CCNc1ccc(CO)c2sc3ccc(O)cc3c(=O)c12`: the T/C is, setting by setting: under setting [16], 155 % of control; under setting [17], 119 % of control; under setting [18], 158 % of control.

`CN1CCOc2c1cnn(CCO)c2=O`: the T/C runs as follows: under setting [19], 105 % of control; under setting [16], 96 % of control; under setting [17], 94 % of control; under setting [20], 99 % of control; under setting [18], 99 % of control.

Take `CCOC(=O)c1ccc2c(=O)[nH]nc(CO)c2c1`: the T/C under setting [19] is 99 % of control; the T/C under setting [16] is 99 % of control; the T/C under setting [17] was 99 % of control; the T/C under setting [20] is 101 % of control; the T/C under setting [18] was 94 % of control.

`CCOC(=O)Nc1cc(NC(C)/C(=N/O)c2ccccc2)c([N+](=O)[O-])c(N)n1` (stereo not given): the T/C under setting [1] is 99 % of control and 100 % of control; the T/C under setting [2] was 109 % of control and 123 % of control; the T/C (dose: 172.8 mg/kg/injection, vehicle: Klucel (hydroxypropylcellulose) (HPC)) is 107 % of control; the T/C (dose: 288.0 mg/kg/injection, vehicle: Klucel (hydroxypropylcellulose) (HPC)) is 119 % of control; the T/C under setting [15] is 156 % of control; the T/C (dose: 13333.3 mg/kg/injection, vehicle: Klucel (hydroxypropylcellulose) (HPC)) is 119 % of control.

Consider `CNc1nc(N(C)C)nc(N(C)C)n1`, for which the T/C reads like this: under setting [11], 92 % of control and 100 % of control; under setting [5], 102 % of control and 109 % of control; under setting [7], 113 % of control and 114 % of control; under setting [9], 117 % of control and 120 % of control.

On to `COC1=CC(=O)C(OC)=C(OC)C1=O`, for which the T/C under setting [21] is 95 % of control; the T/C under setting [12] is 95 % of control; the T/C under setting [13] is 99 % of control; the T/C under setting [14] is 97 % of control; the T/C under setting [22] is 93 % of control.

Turning to `OCC(O)C(O)C(O)C(O)CO` (stereo not given), the T/C is 96 % of control and 102 % of control (dose: 75.0 mg/kg/injection, vehicle: saline); 111 % of control (dose: 150.0 mg/kg/injection, vehicle: saline); 96 % of control and 100 % of control (dose: 300.0 mg/kg/injection, vehicle: saline); 92 % of control and 101 % of control (dose: 600.0 mg/kg/injection, vehicle: saline); 101 % of control and 106 % of control (dose: 1200.0 mg/kg/injection, vehicle: saline).

`CC(C)(C)c1noc2c1C(=O)c1ccccc1-2`: the T/C is, setting by setting: under setting [19], 102 % of control; under setting [16], 105 % of control; under setting [17], 100 % of control; under setting [20], 90 % of control.

As to `CCCCCCN1CCN(Cc2ccc(N(CC)CC)cc2)C(=O)C1=O`, the T/C is 95 % of control (dose: 25.0 mg/kg/injection, vehicle: Klucel (hydroxypropylcellulose) (HPC)) and 107 % of control under setting [1].

Turning to `O=[n+]1c2c(n([O-])c3cc(Cl)c(Cl)cc31)CCCC2`, the T/C was 99 % of control under setting [21]; 97 % of control under setting [12]; 100 % of control under setting [13]; 97 % of control under setting [14]; 95 % of control under setting [22].

Regarding `CN(C)CCCOc1nc2c(c(=O)n(C)c(=O)n2C)n1C` (tested in a mixture with another compound), the T/C by setting is: under setting [1], 169 % of control and 182 % of control; under setting [2], 163 % of control and 197 % of control; under setting [3], 208 % of control and 267 % of control.

For the compound `COc1cc(C2=NCCc3cc4c(cc32)OCO4)cc(OC)c1OC`, the T/C (dose: 12.5 mg/kg/injection, vehicle: saline) was 106 % of control; the T/C under setting [10] was 106 % of control; the T/C under setting [4] was 106 % of control; the T/C under setting [6] was 110 % of control.

Take `Cc1ccc(C(=O)NC2C(=O)NC(C(C)C)C(=O)N3CCCC3C(=O)N(C)CC(=O)N(C)C(C(C)C)C(=O)OC2C)c2c1Oc1c(c(C(=O)NC3C(=O)NC(C(C)C)C(=O)N4CCCC4C(=O)N(C)CC(=O)N(C)C(C(C)C)C(=O)OC3C)c3nc(-c4ccccc4)c(=O)oc3c1C)N2` (stereo not given): the T/C was 101 % of control and 113 % of control (dose: 0.25 mg/kg/injection, vehicle: water); 99 % of control (dose: 0.5 mg/kg/injection, vehicle: water); 114 % of control (dose: 1.0 mg/kg/injection, vehicle: water).

For the compound `CCCCCCCCCCCCN1C(C)=CS/C1=C\C=C\c1scc(C)[n+]1CCCCCCCCCCCC`, the T/C by setting is: (dose: 0.75 mg/kg/injection, vehicle: saline with Tween-80) 119 % of control; (dose: 1.5 mg/kg/injection, vehicle: saline with Tween-80) 116 % of control.

Regarding `CC1(O)C=CC(=O)C=C1`, the T/C was 104 % of control (dose: 12.5 mg/kg/injection, vehicle: water); 102 % of control and 113 % of control (dose: 25.0 mg/kg/injection, vehicle: water); 109 % of control and 114 % of control (dose: 50.0 mg/kg/injection, vehicle: water).

As for `C[C@]12C=CC(=O)C=C1CC[C@@H]1[C@@H]2C(=O)C[C@@]2(C)[C@H]1CC[C@]2(O)C(=O)CO`, the T/C by setting is: under setting [1], 105 % of control and 123 % of control; under setting [2], 118 % of control; under setting [3], 116 % of control; under setting [15], 94 % of control.
